Assay [1] concerns the target T1, human TRPV1 (Homo sapiens, UniProt Q8NER1).
T1 construct: expressed in transfected cells
As to the kind of experiment: Capsaicin Activation Assay (FLIPR intracellular Ca2+, recombinant HEK293 cells). The class given is cell-based. The following applies: recombinant HEK293 cells expressing hTRPV1; 50 nM capsaicin; read-out: human TRPV1 capsaicin IC50.

Assay [2] has as its target T1, human TRPV1. As to the kind of experiment: Acid Activation Assay (pH 5.0, FLIPR intracellular Ca2+, recombinant HEK293 cells). The class given is cell-based. As to conditions: percentage of maximal pH 5.0-induced response remaining; HEK293 hTRPV1; max concentration 37.5 μM. Summed up: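 HEK293 cells stably expressing recombinant hTRPV1 were loaded with calcium dye for 90-120 min at 25° C and pre-treated with compound for 3 min before a pH 5.0 (DPBS/MES) challenge. Peak FLIPR fluorescence over baseline is given as percentage of the maximal pH 5.0-induced response.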

T1 sequence (Q8NER1 whole entry): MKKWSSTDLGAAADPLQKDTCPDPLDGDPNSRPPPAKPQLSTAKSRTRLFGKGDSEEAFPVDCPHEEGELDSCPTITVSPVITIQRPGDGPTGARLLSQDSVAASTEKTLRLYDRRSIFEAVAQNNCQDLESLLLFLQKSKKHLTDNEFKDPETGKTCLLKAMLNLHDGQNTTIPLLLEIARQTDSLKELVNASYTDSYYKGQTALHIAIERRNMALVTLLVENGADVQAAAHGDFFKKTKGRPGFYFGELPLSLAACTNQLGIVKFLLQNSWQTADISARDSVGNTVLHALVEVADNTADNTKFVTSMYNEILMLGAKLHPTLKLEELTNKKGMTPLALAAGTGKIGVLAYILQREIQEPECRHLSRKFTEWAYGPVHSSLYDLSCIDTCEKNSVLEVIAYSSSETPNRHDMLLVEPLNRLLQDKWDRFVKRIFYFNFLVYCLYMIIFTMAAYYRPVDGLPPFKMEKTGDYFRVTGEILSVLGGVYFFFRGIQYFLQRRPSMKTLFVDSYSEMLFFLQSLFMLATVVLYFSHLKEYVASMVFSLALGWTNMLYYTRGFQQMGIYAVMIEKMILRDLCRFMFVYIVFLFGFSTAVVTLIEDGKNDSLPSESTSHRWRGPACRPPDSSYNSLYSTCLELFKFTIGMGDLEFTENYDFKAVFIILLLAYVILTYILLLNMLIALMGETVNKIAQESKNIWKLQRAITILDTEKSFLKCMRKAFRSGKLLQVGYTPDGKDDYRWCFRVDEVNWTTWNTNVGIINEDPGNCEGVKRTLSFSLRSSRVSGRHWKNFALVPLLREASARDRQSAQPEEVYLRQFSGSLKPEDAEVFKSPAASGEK

In general, IC50 refers to the concentration needed to halve the response being measured. As for `CC1(C)C[C@@H](NC(=O)Nc2ccc(F)c3c2C[C@@H](O)C3)c2ccc(Cl)cc2O1` [Example 167, 1-[(4R)-7-chloro-2,2-dimethyl-3,4-dihydro-2H-chromen-4-yl]-3-[(2R)-7-fluoro-2-hydroxy-2,3-dihydro-1H-inden-4-yl]urea], the concentration for half-maximal inhibition (IC50) at human TRPV1 [1] worked out at 200 nM. Besides, on human TRPV1 [2], the “human TRPV1 H+ (max % remain)” value is 51%.

Consider `CC1(C)C[C@@H](NC(=O)Nc2ccc(F)c3c2C[C@@H](O)C3)c2ccccc2O1` [Example 164, 1-[(4R)-2,2-dimethyl-3,4-dihydro-2H-chromen-4-yl]-3-[(2R)-7-fluoro-2-hydroxy-2,3-dihydro-1H-inden-4-yl]urea], for which the half-inhibitory concentration (IC50) on human TRPV1 [1] was 1500 nM. Moreover, the “human TRPV1 H+ (max % remain)” value at human TRPV1 [2] is on record as 61%.

On to `CC1(C)C[C@@H](NC(=O)Nc2cccc3c2C[C@@H](O)C3)c2ccccc2O1` [Example 82, 1-[(4R)-2,2-dimethyl-3,4-dihydro-2H-chromen-4-yl]-3-[(2S)-2-hydroxy-2,3-dihydro-1H-inden-4-yl]urea], for which the half-inhibitory concentration (IC50) at human TRPV1 [1] worked out at 510 nM. For the same molecule, the “human TRPV1 H+ (max % remain)” value at human TRPV1 [2] is 56%.

`CC1(C)C[C@@H](NC(=O)Nc2cccc3c2C[C@H](O)C3)c2cccc(C(F)(F)F)c2O1` [Example 29, 1-[(4R)-2,2-dimethyl-8-(trifluoromethyl)-3,4-dihydro-2H-chromen-4-yl]-3-[(2R)-2-hydroxy-2,3-dihydro-1H-inden-4-yl]urea]: the IC50 on human TRPV1 [1] was 15 nM. Also, the “human TRPV1 H+ (max % remain)” value on human TRPV1 [2] was 72%.

Turning to `O=C(Nc1cccc2c1C[C@@H](O)C2)N[C@@H]1CC(CF)(CF)Oc2ccccc21` [Example 86, 1-[(4R)-2,2-bis(fluoromethyl)-3,4-dihydro-2H-chromen-4-yl]-3-[(2S)-2-hydroxy-2,3-dihydro-1H-inden-4-yl]urea], the IC50 at human TRPV1 [1] stood at 1600 nM. For the same molecule, the “human TRPV1 H+ (max % remain)” value at human TRPV1 [2] is on record as 46%.

With `O=C(Nc1cccc2c1C[C@H](O)C2)N[C@@H]1CC(CF)(CF)Oc2cc(Br)ccc21` [Example 45, 1-[(4R)-7-bromo-2,2-bis(fluoromethyl)-3,4-dihydro-2H-chromen-4-yl]-3-[(2R)-2-hydroxy-2,3-dihydro-1H-inden-4-yl]urea], the IC50 at human TRPV1 [1] was found to be 43 nM. In addition, the “human TRPV1 H+ (max % remain)” value on human TRPV1 [2] amounted to 58%.

`O=C(Nc1cccc2c1C[C@@H](O)C2)N[C@H]1CCOc2cc(OC(F)(F)F)ccc21` [Example 94, 1-[(2S)-2-hydroxy-2,3-dihydro-1H-inden-4-yl]-3-[(4S)-7-(trifluoromethoxy)-3,4-dihydro-2H-chromen-4-yl]urea]: the concentration for half-maximal inhibition (IC50) on human TRPV1 [1] was 5900 nM. The “human TRPV1 H+ (max % remain)” value at human TRPV1 [2] is recorded as 47%.

For the molecule `O=C(Nc1ccc(F)c2c1C[C@H](O)C2)N[C@@H]1CC(CF)(CF)Oc2c(F)cc(F)cc21` [Example 142, 1-[(4R)-6,8-difluoro-2,2-bis(fluoromethyl)-3,4-dihydro-2H-chromen-4-yl]-3-[(2S)-7-fluoro-2-hydroxy-2,3-dihydro-1H-inden-4-yl]urea], the half-maximal inhibitory concentration (IC50) at human TRPV1 [1] was 4000 nM. The “human TRPV1 H+ (max % remain)” value on human TRPV1 [2] worked out at 4%.

For `O=C(Nc1cccc2c1C[C@H](O)C2)N[C@@H]1CCOc2cc(C(F)(F)F)ccc21` [Example 21, 1-[(2R)-2-hydroxy-2,3-dihydro-1H-inden-4-yl]-3-[(4R)-7-(trifluoromethyl)-3,4-dihydro-2H-chromen-4-yl]urea], on human TRPV1 [1], the half-maximal inhibitory concentration (IC50) worked out at 89 nM. Moreover, at human TRPV1 [2], the “human TRPV1 H+ (max % remain)” value came to 74%.

With `O=C(Nc1cccc2c1C[C@@H](O)C2)N[C@@H]1CC(CF)(CF)Oc2ccc(F)cc21` [Example 78, 1-[(4R)-6-fluoro-2,2-bis(fluoromethyl)-3,4-dihydro-2H-chromen-4-yl]-3-[(2S)-2-hydroxy-2,3-dihydro-1H-inden-4-yl]urea], at human TRPV1 [1], the half-inhibitory concentration (IC50) came to 1400 nM. The “human TRPV1 H+ (max % remain)” value at human TRPV1 [2] came out at 12%.

Regarding `O=C(Nc1cccc2c1C[C@H](O)C2)N[C@H]1COc2ccc(Cl)cc2C1` [Example 89, 1-[(3R)-6-chloro-3,4-dihydro-2H-chromen-3-yl]-3-[(2R)-2-hydroxy-2,3-dihydro-1H-inden-4-yl]urea], the IC50 on human TRPV1 [1] is 560 nM. The “human TRPV1 H+ (max % remain)” value at human TRPV1 [2] is 91%.

In the case of `O=C(Nc1cccc2c1C[C@@H](O)C2)N[C@@H]1CC(CF)(CF)Oc2c1ccc(Cl)c2F` [Example 81, 1-[(4R)-7-chloro-8-fluoro-2,2-bis(fluoromethyl)-3,4-dihydro-2H-chromen-4-yl]-3-[(2S)-2-hydroxy-2,3-dihydro-1H-inden-4-yl]urea], the half-inhibitory concentration (IC50) at human TRPV1 [1] was 59 nM. The “human TRPV1 H+ (max % remain)” value at human TRPV1 [2] is 11%.

`C[C@@]1(CF)C[C@@H](NC(=O)Nc2cccc3c2C[C@H](O)C3)c2ccc(C(F)(F)F)cc2O1` [Example 44, 1-[(2S,4R)-2-(fluoromethyl)-2-methyl-7-(trifluoromethyl)-3,4-dihydro-2H-chromen-4-yl]-3-[(2R)-2-hydroxy-2,3-dihydro-1H-inden-4-yl]urea]: the concentration for half-maximal inhibition (IC50) on human TRPV1 [1] was found to be 42 nM. The “human TRPV1 H+ (max % remain)” value on human TRPV1 [2] came out at 52%.

On to `CC1(C)C[C@@H](NC(=O)Nc2cccc3c2C[C@@H](O)C3)c2ccc(OC(F)(F)F)cc2O1` [Example 72, 1-[(4R)-2,2-dimethyl-7-(trifluoromethoxy)-3,4-dihydro-2H-chromen-4-yl]-3-[(2S)-2-hydroxy-2,3-dihydro-1H-inden-4-yl]urea], for which, at human TRPV1 [1], the IC50 is 27 nM. Further, the “human TRPV1 H+ (max % remain)” value on human TRPV1 [2] was 0%.

Consider `O=C(Nc1cccc2c1CC(O)C2)NC1c2ccccc2OCC1Cc1ccccc1` (stereo not shown) [Example 111, 1-(3-benzyl-3,4-dihydro-2H-chromen-4-yl)-3-(2-hydroxy-2,3-dihydro-1H-inden-4-yl)urea], for which, at human TRPV1 [1], the half-maximal inhibitory concentration (IC50) was 2200 nM. For the same molecule, the “human TRPV1 H+ (max % remain)” value at human TRPV1 [2] came out at 94%.

Consider `O=C(Nc1ccc(F)c2c1C[C@@H](O)C2)N[C@@H]1CC(CF)(CF)Oc2c(F)cccc21` [Example 170, 1-[(4R)-8-fluoro-2,2-bis(fluoromethyl)-3,4-dihydro-2H-chromen-4-yl]-3-[(2R)-7-fluoro-2-hydroxy-2,3-dihydro-1H-inden-4-yl]urea], for which the IC50 on human TRPV1 [1] amounted to 3500 nM. The “human TRPV1 H+ (max % remain)” value at human TRPV1 [2] came to 58%.

As for `CC(C)(C)c1cccc2c1OCC[C@H]2NC(=O)Nc1cccc2c1C[C@H](O)C2` [Example 51, 1-[(4R)-8-tert-butyl-3,4-dihydro-2H-chromen-4-yl]-3-[(2R)-2-hydroxy-2,3-dihydro-1H-inden-4-yl]urea], the half-maximal inhibitory concentration (IC50) at human TRPV1 [1] was found to be 18 nM. In addition, the “human TRPV1 H+ (max % remain)” value on human TRPV1 [2] was found to be 70%.

For the molecule `O=C(NCC1COc2ccc(F)cc2C1)Nc1cccc2c1C[C@H](O)C2` (stereo partly drawn) [Example 28, 1-[(6-fluoro-3,4-dihydro-2H-chromen-3-yl)methyl]-3-[(2R)-2-hydroxy-2,3-dihydro-1H-inden-4-yl]urea], the IC50 at human TRPV1 [1] was determined as 290 nM. Further, at human TRPV1 [2], the “human TRPV1 H+ (max % remain)” value is recorded as 58%.

With `O=C(Nc1ccc(F)c2c1C[C@H](O)C2)N[C@@H]1CC(CF)(CF)Oc2ccc(F)cc21` [Example 141, 1-[(4R)-6-fluoro-2,2-bis(fluoromethyl)-3,4-dihydro-2H-chromen-4-yl]-3-[(2S)-7-fluoro-2-hydroxy-2,3-dihydro-1H-inden-4-yl]urea], on human TRPV1 [1], the IC50 is 3900 nM. The “human TRPV1 H+ (max % remain)” value at human TRPV1 [2] was 5%.

On to `C[C@]1(CF)C[C@@H](NC(=O)Nc2c(F)ccc3c2CC(O)C3)c2ccc(Cl)cc2O1` (stereo partly drawn) [Example 25, 1-[(2R,4R)-7-chloro-2-(fluoromethyl)-2-methyl-3,4-dihydro-2H-chromen-4-yl]-3-(5-fluoro-2-hydroxy-2,3-dihydro-1H-inden-4-yl)urea], for which the half-maximal inhibitory concentration (IC50) at human TRPV1 [1] amounted to 41 nM. The “human TRPV1 H+ (max % remain)” value at human TRPV1 [2] came out at 30%.

Take `CC1(C)C[C@@H](NC(=O)Nc2ccc(F)c3c2C[C@H](O)C3)c2cccc(C(F)(F)F)c2O1` [Example 135, 1-[(4R)-2,2-dimethyl-8-(trifluoromethyl)-3,4-dihydro-2H-chromen-4-yl]-3-[(2S)-7-fluoro-2-hydroxy-2,3-dihydro-1H-inden-4-yl]urea]: the IC50 on human TRPV1 [1] came out at 42 nM. Moreover, on human TRPV1 [2], the “human TRPV1 H+ (max % remain)” value was 3%.

Take `O=C(Nc1cccc2c1C[C@H](O)C2)NC1COc2cc(Cl)ccc2C1` (stereo partly drawn) [Example 99, 1-(7-chloro-3,4-dihydro-2H-chromen-3-yl)-3-[(2R)-2-hydroxy-2,3-dihydro-1H-inden-4-yl]urea]: the IC50 on human TRPV1 [1] worked out at 570 nM. Also, the “human TRPV1 H+ (max % remain)” value at human TRPV1 [2] came to 75%.

On to `O=C(Nc1ccc(F)c2c1C[C@@H](O)C2)N[C@@H]1CC(CF)(CF)Oc2ccccc21` [Example 169, 1-[(4R)-2,2-bis(fluoromethyl)-3,4-dihydro-2H-chromen-4-yl]-3-[(2R)-7-fluoro-2-hydroxy-2,3-dihydro-1H-inden-4-yl]urea], for which the IC50 at human TRPV1 [1] came out at 3400 nM. For the same molecule, the “human TRPV1 H+ (max % remain)” value at human TRPV1 [2] is 57%.

As to `O=C(Nc1cccc2c1C[C@H](O)C2)N[C@@H]1CCOc2c(F)cc(F)cc21` [Example 64, 1-[(4R)-6,8-difluoro-3,4-dihydro-2H-chromen-4-yl]-3-[(2R)-2-hydroxy-2,3-dihydro-1H-inden-4-yl]urea], on human TRPV1 [1], the half-maximal inhibitory concentration (IC50) was 4800 nM. The “human TRPV1 H+ (max % remain)” value on human TRPV1 [2] worked out at 90%.

As to `CC1(C)C[C@@H](NC(=O)Nc2ccc(F)c3c2C[C@H](O)C3)c2ccc(F)c(F)c2O1` [Example 153, 1-[(4R)-7,8-difluoro-2,2-dimethyl-3,4-dihydro-2H-chromen-4-yl]-3-[(2S)-7-fluoro-2-hydroxy-2,3-dihydro-1H-inden-4-yl]urea], the IC50 on human TRPV1 [1] was 760 nM. Moreover, the “human TRPV1 H+ (max % remain)” value at human TRPV1 [2] worked out at 2%.

As for `C[C@@]1(C(F)F)C[C@@H](NC(=O)Nc2cccc3c2C[C@H](O)C3)c2ccccc2O1` [Example 126, 1-[(2S,4R)-2-(difluoromethyl)-2-methyl-3,4-dihydro-2H-chromen-4-yl]-3-[(2R)-2-hydroxy-2,3-dihydro-1H-inden-4-yl]urea], the half-inhibitory concentration (IC50) at human TRPV1 [1] amounted to 1400 nM. The “human TRPV1 H+ (max % remain)” value on human TRPV1 [2] was 88%.

The record behind these values is patent US8859584B2, “TRPV1 antagonists” (AbbVie Inc., priority 2011, dated 2014).
